Data published in PMC6858373 (Scientific Reports, 2019).
Where two headings read alike, the source gives them in different places.

Legend:
[1] = molecular target: T1, FGF14:Nav1.6 C-tail complex (Homo sapiens, UniProt Q92915+Q9UQD0); experiment: Split-luciferase complementation assay (LCA) in Clone V double stable HEK293 cells; assay type: cell-based; conditions: for Z-score (LCA primary screening): 30 µM, average of primary screening (n = 2), vs on-plate 0.3% DMSO; for Z-score (LCA primary screening) / IMin (% Luminescence) / EMax (% Luminescence): 384-well; for IMin (% Luminescence): antagonists; for IMin (% Luminescence) / EMax (% Luminescence): normalized to DMSO; for EMax (% Luminescence): agonists; for EC50: read-out: EC50
T1 construct: polymerase chain reaction (PCR) amplification of the FGF14 open reading frame (nt 1–855); C-terminal fragment of Nav1.6 (amino acids 1763–1976) fused with CD4ΔC-tail (amino acids 1–395); expressed in transfected cells
T1 sequence (Q92915 1-252 isoform Q92915-2): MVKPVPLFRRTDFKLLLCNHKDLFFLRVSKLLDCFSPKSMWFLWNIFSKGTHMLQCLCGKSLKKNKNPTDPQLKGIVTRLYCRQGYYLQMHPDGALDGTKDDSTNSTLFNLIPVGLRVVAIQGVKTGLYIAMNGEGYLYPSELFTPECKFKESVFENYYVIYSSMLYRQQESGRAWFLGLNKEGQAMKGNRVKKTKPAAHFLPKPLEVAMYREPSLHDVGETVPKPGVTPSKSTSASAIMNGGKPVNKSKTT
T1 sequence (Q9UQD0 1763-1976 limits assumed): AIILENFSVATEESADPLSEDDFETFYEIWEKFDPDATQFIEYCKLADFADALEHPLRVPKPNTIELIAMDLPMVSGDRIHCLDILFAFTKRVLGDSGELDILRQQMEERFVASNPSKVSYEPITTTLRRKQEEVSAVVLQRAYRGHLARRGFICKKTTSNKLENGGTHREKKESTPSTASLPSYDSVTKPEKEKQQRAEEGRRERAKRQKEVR

[2] = molecular target: full-length P. pyralis luciferase (Photinus pyralis, UniProt P08659, K549A/L550V/N119G/N50D/S548I); assay type: cell-based
full-length P. pyralis luciferase, sequence (P08659 whole entry N50D/N119G/S548I/K549A/L550V, looked up): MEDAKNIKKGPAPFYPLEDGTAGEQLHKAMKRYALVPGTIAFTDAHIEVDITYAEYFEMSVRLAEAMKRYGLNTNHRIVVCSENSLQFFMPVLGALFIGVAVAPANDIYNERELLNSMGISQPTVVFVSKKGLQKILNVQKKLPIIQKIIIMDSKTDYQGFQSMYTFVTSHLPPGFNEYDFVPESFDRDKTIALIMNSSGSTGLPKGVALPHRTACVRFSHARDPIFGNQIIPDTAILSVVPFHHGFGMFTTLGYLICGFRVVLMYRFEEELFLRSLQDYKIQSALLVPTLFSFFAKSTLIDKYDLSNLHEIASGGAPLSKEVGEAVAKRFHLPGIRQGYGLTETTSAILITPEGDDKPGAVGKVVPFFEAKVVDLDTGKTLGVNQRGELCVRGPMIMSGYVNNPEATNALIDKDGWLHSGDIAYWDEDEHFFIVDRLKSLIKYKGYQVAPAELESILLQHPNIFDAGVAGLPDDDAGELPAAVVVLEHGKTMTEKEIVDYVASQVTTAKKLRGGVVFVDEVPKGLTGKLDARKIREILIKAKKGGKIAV

[3] = system: Clone V cells
[4] = CC_NCI screening, LCA luminescence, biological replicate Set 1, normalized to on-plate 0.3% DMSO controls (n=16 per plate)
[5] = CC_NCI screening, LCA luminescence, biological replicate Set 2, normalized to on-plate 0.3% DMSO controls (n=16 per plate)
[6] = CC_NCI screening, LCA, biological replicate Set 1, normalized to on-plate 0.3% DMSO controls
[7] = CC_NCI screening, LCA, biological replicate Set 2, normalized to on-plate 0.3% DMSO controls
[8] = CC_NCI screening, average of Set 1 and Set 2, normalized to 0.3% DMSO controls
[9] = CC_NCI screening, full-length luciferase counter-screen luminescence, normalized to on-plate 0.3% DMSO controls
[10] = CC_NCI screening, full-length luciferase counter-screen, normalized to on-plate 0.3% DMSO controls
[11] = CC_NCI screening, biological replicate Set 1, normalized to on-plate 0.3% DMSO controls
[12] = CC_NCI screening, biological replicate Set 1, normalized to on-plate 0.3% DMSO controls (n=16 per plate)
[13] = CC_NCI screening, biological replicate Set 2, normalized to on-plate 0.3% DMSO controls
[14] = CC_NCI screening, biological replicate Set 2, normalized to on-plate 0.3% DMSO controls (n=16 per plate)
[15] = average of Set 1 and Set 2, normalized to 0.3% DMSO controls
[16] = CC_NCI screening, normalized to on-plate 0.3% DMSO controls
[17] = estimated, 8-point dose response 0.25-30 µM, n = 4 per concentration, library compounds, read-out: IC50
[18] = estimated, 8-point dose response 0.25-30 µM, n = 4 per concentration, library compounds

## CCCCCCCCCCCCSc1nc2c([nH]1)c(=O)n(C)c(=O)n2C
[1]; [4]
  Split Luciferase Assay % Lum Set 1: 112.30%
[1]; [5]
  Split Luciferase Assay %Lum Set 2: 118.60%
[1]; [6]
  Split Luciferase Assay Z-score Set 1: 0.99
[1]; [7]
  Split Luciferase Assay Z-score Set 2: 1.51
[1]; [8]
  Split Luciferase Assay %Lum Avg: 115.45%
[2]; [9]
  Luciferase Assay % Lum: 103.16%
[2]; [10]
  Luciferase Assay Z-score: 0.40
[3]
  Toxicity Assay % Fluor: 93.89%
  Toxicity Assay Z-score: -0.85

## NS(=O)(=O)c1nn2cc(-c3ccccc3)nc2s1 [AEG 3482]
[1]; [11]
  Split Luciferase Assay Z-score Set 1: 1.78
[1]; [12]
  Split Luciferase Assay % Lum Set 1: 122.08%
[1]; [13]
  Split Luciferase Assay Z-score Set 2: 1.09
[1]; [14]
  Split Luciferase Assay %Lum Set 2: 113.39%
[1]; [15]
  Split Luciferase Assay %Lum Avg: 117.74%
[2]; [16]
  Luciferase Assay % Lum (full-length luciferase counter-screen): 93.96%
  Luciferase Assay Z-score (full-length luciferase counter-screen): -0.77
[3]
  Toxicity Assay % Fluor (CTB cell viability fluorescence): 105.28%
  Toxicity Assay Z-score (CTB cell viability): 0.74

## N#C/C(=C/c1ccc(O)c(O)c1)C(=O)NCc1ccccc1 [AG 490]
[1]; [4]
  Split Luciferase Assay % Lum Set 1: 118.82%
[1]; [5]
  Split Luciferase Assay %Lum Set 2: 120.68%
[1]; [6]
  Split Luciferase Assay Z-score Set 1: 1.52
[1]; [7]
  Split Luciferase Assay Z-score Set 2: 1.68
[1]; [8]
  Split Luciferase Assay %Lum Avg: 119.75%
[2]; [9]
  Luciferase Assay % Lum: 85.62%
[2]; [10]
  Luciferase Assay Z-score: -1.84
[3]
  Toxicity Assay % Fluor: 89.42%
  Toxicity Assay Z-score: -1.48

## NC(=O)c1ccc2nc(-c3ccc(Oc4ccc(Cl)cc4)cc3)[nH]c2c1 [CHK2 INHIBITOR II]
[3]
  Toxicity Assay % Fluor (CTB cell viability fluorescence): 112.91%
  Toxicity Assay Z-score (CTB cell viability): 1.80

## O=c1cc(N2CCOCC2)nc2c3ccccc3ccn12 [COMPOUND 401]
[1]; [11]
  Split Luciferase Assay Z-score Set 1: -0.15
[1]; [12]
  Split Luciferase Assay % Lum Set 1: 98.17%
[1]; [13]
  Split Luciferase Assay Z-score Set 2: -0.43
[1]; [14]
  Split Luciferase Assay %Lum Set 2: 94.67%
[1]; [15]
  Split Luciferase Assay %Lum Avg: 96.42%
[2]; [16]
  Luciferase Assay % Lum (full-length luciferase counter-screen): 93.50%
  Luciferase Assay Z-score (full-length luciferase counter-screen): -0.83

## N.N.[Cl][Pt][Cl] [Cisplatin]
[1]; [4]
  Split Luciferase Assay % Lum Set 1: 89.47%
[1]; [5]
  Split Luciferase Assay %Lum Set 2: 98.83%
[1]; [6]
  Split Luciferase Assay Z-score Set 1: -0.85
[1]; [7]
  Split Luciferase Assay Z-score Set 2: -0.10
[1]; [8]
  Split Luciferase Assay %Lum Avg: 94.15%
[2]; [9]
  Luciferase Assay % Lum: 99.37%
[2]; [10]
  Luciferase Assay Z-score: -0.08

## CS(=O)(=O)N1CCN(Cc2cc3nc(-c4cccc5[nH]ncc45)nc(N4CCOCC4)c3s2)CC1 [GDC 0941]
[2]; [16]
  Luciferase Assay % Lum (full-length luciferase counter-screen): 84.36%
  Luciferase Assay Z-score (full-length luciferase counter-screen): -2.00

## CCn1c(-c2nonc2N)nc2cnc(Oc3cccc(NC(=O)c4ccc(OCCN5CCOCC5)cc4)c3)cc21 [GSK 269962 A, reference compound]
[1]
  Z-score (LCA primary screening): −5.77
[1]; Clone V cells
  IMin (% Luminescence): 28.81 % Luminescence
[1]; [17]
  IC50: 24.7 µM

## Cc1ccc(NC(=O)c2ccc(CN3CCN(C)CC3)cc2)cc1Nc1nccc(-c2cccnc2)n1 [Imatinib]
[2]
  Luciferase Assay % Lum: 90.17%
  Luciferase Assay Z-score: -1.26

## CCc1c2c(nc3ccc(OC(=O)N4CCC(N5CCCCC5)CC4)cc13)-c1cc3c(c(=O)n1C2)COC(=O)[C@]3(O)CC.Cl [Irinotecan hydrochloride]
[2]; [9]
  Luciferase Assay % Lum: 96.04%
[2]; [10]
  Luciferase Assay Z-score: -0.51

## O=[N+]([O-])/C=C/c1ccc2c(c1)OCO2 [MNS, reference compound]
[1]; 384-well plates, range 0.625 - 25 μM, n=16 per concentration (Supplementary Fig. S1A), read-out: Estimated IC50
  IC50: 13.3 µM
[1]; MNS 30 µM, Clone V cells, 96-well plates
  % luminescence (normalized mean and SD): 10.8% ± 3.1%
[1]; cell density 1 × 10^4 cells per 384-well, 8 concentrations 0.625-30 µM, read-out: IC50
  IC50: 3.96 µM
[1]; cell density 2 × 10^4 cells per 384-well, 8 concentrations 0.625-30 µM, read-out: IC50
  IC50: 7.49 µM
[1]; cell density 3 × 10^4 cells per 384-well, 8 concentrations 0.625-30 µM, read-out: IC50
  IC50: 9.82 µM
[1]; cell density 4 × 10^4 cells per 384-well, 8 concentrations 0.625-30 µM, read-out: IC50
  IC50: 13.3 µM
[2]; MNS 30 µM, 96-well plates
  % maximal luminescence, full-length luciferase (normalized mean and SD): 96.8% ± 2.8%

## O=C(NOC[C@H](O)CO)c1ccc(F)c(F)c1Nc1ccc(I)cc1F [PD 0325901]
[3]; human, 16 h, 30 µM
  Toxicity Assay % Fluor: 83.92%
  Toxicity Assay Z-score: -2.25

## CNC(=O)c1cc(Oc2ccc(NC(=O)Nc3ccc(Cl)c(C(F)(F)F)c3)cc2)ccn1 [Sorafenib, reference compound]
[1]
  Z-score (LCA primary screening): −7.62
[1]; [4]
  Split Luciferase Assay % Lum Set 1: 5.76%
[1]; CC_NCI screening, LCA luminescence, biological replicate Set 1, normalized to on-plate 0.3% DMSO controls (n=16 per plate), listed as SORAFENIB
  Split Luciferase Assay % Lum Set 1: 4.67%
[1]; [5]
  Split Luciferase Assay %Lum Set 2: 15.60%
[1]; CC_NCI screening, LCA luminescence, biological replicate Set 2, normalized to on-plate 0.3% DMSO controls (n=16 per plate), listed as SORAFENIB
  Split Luciferase Assay %Lum Set 2: 7.28%
[1]; [6]
  Split Luciferase Assay Z-score Set 1: -7.62
[1]; CC_NCI screening, LCA, biological replicate Set 1, normalized to on-plate 0.3% DMSO controls, listed as SORAFENIB
  Split Luciferase Assay Z-score Set 1: -7.70
[1]; [7]
  Split Luciferase Assay Z-score Set 2: -6.87
[1]; CC_NCI screening, LCA, biological replicate Set 2, normalized to on-plate 0.3% DMSO controls, listed as SORAFENIB
  Split Luciferase Assay Z-score Set 2: -7.54
[1]; [8]
  Split Luciferase Assay %Lum Avg: 10.68%
[1]; CC_NCI screening, average of Set 1 and Set 2, normalized to 0.3% DMSO controls, listed as SORAFENIB
  Split Luciferase Assay %Lum Avg: 5.98%
[1]; Clone V cells
  IMin (% Luminescence): 5.98 % Luminescence
[1]; [17]
  IC50: 3.98 µM
[2]; [9]
  Luciferase Assay % Lum: 88.55%
[2]; CC_NCI screening, full-length luciferase counter-screen luminescence, normalized to on-plate 0.3% DMSO controls, listed as SORAFENIB
  Luciferase Assay % Lum: 91.34%
[2]; [10]
  Luciferase Assay Z-score: -1.47
[2]; CC_NCI screening, full-length luciferase counter-screen, normalized to on-plate 0.3% DMSO controls, listed as SORAFENIB
  Luciferase Assay Z-score: -1.11

## CCN(CC)CCNC(=O)c1c(C)[nH]c(/C=C2\C(=O)Nc3ccc(F)cc32)c1C [Sunitinib]
[1]; [4]
  Split Luciferase Assay % Lum Set 1: 68.81%
[1]; [5]
  Split Luciferase Assay %Lum Set 2: 72.82%
[1]; [6]
  Split Luciferase Assay Z-score Set 1: -2.52
[1]; [7]
  Split Luciferase Assay Z-score Set 2: -2.21
[1]; [8]
  Split Luciferase Assay %Lum Avg: 70.82%
[2]; [9]
  Luciferase Assay % Lum: 95.10%
[2]; [10]
  Luciferase Assay Z-score: -0.63

## COc1cc2c(N3CCN(C(=O)Nc4ccc(OC(C)C)cc4)CC3)ncnc2cc1OCCCN1CCCCC1 [TANDUTINIB]
[1]; [4]
  Split Luciferase Assay % Lum Set 1: 92.73%
[1]; [5]
  Split Luciferase Assay %Lum Set 2: 92.59%
[1]; [6]
  Split Luciferase Assay Z-score Set 1: -0.59
[1]; [7]
  Split Luciferase Assay Z-score Set 2: -0.60
[1]; [8]
  Split Luciferase Assay %Lum Avg: 92.66%
[2]; [9]
  Luciferase Assay % Lum: 88.98%
[2]; [10]
  Luciferase Assay Z-score: -1.41

## Oc1ncc(N(CCCl)CCCl)c(O)n1 [Uracil mustard]
[1]
  Split Luciferase Assay % Lum Set 1: 76.42%
  Split Luciferase Assay %Lum Avg: 74.62%
  Split Luciferase Assay %Lum Set 2: 72.82%
  Split Luciferase Assay Z-score Set 1: -1.91
  Split Luciferase Assay Z-score Set 2: -2.21
[2]
  Luciferase Assay % Lum: 97.98%
  Luciferase Assay Z-score: -0.26

## CC[C@]1(O)C[C@@H]2CN(CCc3c([nH]c4ccccc34)[C@@](C(=O)OC)(c3cc4c(cc3OC)N(C)[C@H]3[C@@](O)(C(=O)OC)[C@H](OC(C)=O)[C@]5(CC)C=CCN6CC[C@]43[C@@H]65)C2)C1 [Vinblastine, reference compound]
[1]
  Z-score (LCA primary screening): 7.42
[1]; Clone V cells
  EMax (% Luminescence): 191.58 % Luminescence
[1]; [18]
  EC50: 20.6 µM

## CC[C@]1(O)C[C@H]2CN(CCc3c([nH]c4ccccc34)[C@@](C(=O)OC)(c3cc4c(cc3OC)N(C=O)[C@H]3[C@@](O)(C(=O)OC)[C@H](OC(C)=O)[C@]5(CC)C=CCN6CC[C@]43[C@@H]65)C2)C1 [Vincristine, reference compound]
[1]
  Z-score (LCA primary screening): 7.99
[1]; Clone V cells
  EMax (% Luminescence): 198.49 % Luminescence
[1]; [18]
  EC50: 0.27 µM

## CCC1=C[C@@H]2CN(C1)Cc1c([nH]c3ccccc13)[C@@](C(=O)OC)(c1cc3c(cc1OC)N(C)[C@H]1[C@@](O)(C(=O)OC)[C@H](OC(C)=O)[C@]4(CC)C=CCN5CC[C@]31[C@@H]54)C2 [Vinorelbine, reference compound]
[1]
  Z-score (LCA primary screening): 8.79
[1]; Clone V cells
  EMax (% Luminescence): 208.53 % Luminescence
[1]; [18]
  EC50: 1.55 µM

## Plicamycin
[1]; [11]
  Split Luciferase Assay Z-score Set 1: -1.20
[1]; [12]
  Split Luciferase Assay % Lum Set 1: 85.12%
[1]; [13]
  Split Luciferase Assay Z-score Set 2: -1.11
[1]; [14]
  Split Luciferase Assay %Lum Set 2: 86.35%
[1]; [15]
  Split Luciferase Assay %Lum Avg: 85.73%
[2]; [16]
  Luciferase Assay % Lum (full-length luciferase counter-screen): 92.59%
  Luciferase Assay Z-score (full-length luciferase counter-screen): -0.95
